Among the data in patent publication US7446199B2, “Compositions useful as inhibitors of protein kinases” (Vertex Pharmaceuticals Incorporated, priority 2003, dated 2008) are Ki values, retold here.

The structures appear in SMILES notation. pKi: −log10 of the molar value. Values joined by “and” are separate entries in the source; they are usually repeats but may differ in a detail not shown here. Equal values may be shown once. Bounds are passed on as bounds.

Assay [1] concerns the target c-Met (Homo sapiens, UniProt P08581). The assay can be described thus: Ki determination for the inhibition of c-Met, coupled enzyme system. Format: biochemical. As to conditions: 200 μM ATP, 10 μM polyGluTyr, 80 nM c-Met, 30° C. The method, boiled down:
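Coupled pyruvate kinase/lactate dehydrogenase NADH assay with 80 nM c-Met, 200 μM ATP, 10 μM polyGluTyr in pH 7.5 HEPES, 1.5% DMSO at 30° C. Compound (0.006–12.5 μM final, 12-point) preincubated 10 min; ATP started reaction, rates read over 10 min; Ki derived from rate versus inhibitor concentration.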

The target in assay [2] is T1, FLT-3 (Homo sapiens, UniProt P36888).
T1 construct: 0.02% BSA and 3 nM FLT-3
T1 sequence (P36888 27-993): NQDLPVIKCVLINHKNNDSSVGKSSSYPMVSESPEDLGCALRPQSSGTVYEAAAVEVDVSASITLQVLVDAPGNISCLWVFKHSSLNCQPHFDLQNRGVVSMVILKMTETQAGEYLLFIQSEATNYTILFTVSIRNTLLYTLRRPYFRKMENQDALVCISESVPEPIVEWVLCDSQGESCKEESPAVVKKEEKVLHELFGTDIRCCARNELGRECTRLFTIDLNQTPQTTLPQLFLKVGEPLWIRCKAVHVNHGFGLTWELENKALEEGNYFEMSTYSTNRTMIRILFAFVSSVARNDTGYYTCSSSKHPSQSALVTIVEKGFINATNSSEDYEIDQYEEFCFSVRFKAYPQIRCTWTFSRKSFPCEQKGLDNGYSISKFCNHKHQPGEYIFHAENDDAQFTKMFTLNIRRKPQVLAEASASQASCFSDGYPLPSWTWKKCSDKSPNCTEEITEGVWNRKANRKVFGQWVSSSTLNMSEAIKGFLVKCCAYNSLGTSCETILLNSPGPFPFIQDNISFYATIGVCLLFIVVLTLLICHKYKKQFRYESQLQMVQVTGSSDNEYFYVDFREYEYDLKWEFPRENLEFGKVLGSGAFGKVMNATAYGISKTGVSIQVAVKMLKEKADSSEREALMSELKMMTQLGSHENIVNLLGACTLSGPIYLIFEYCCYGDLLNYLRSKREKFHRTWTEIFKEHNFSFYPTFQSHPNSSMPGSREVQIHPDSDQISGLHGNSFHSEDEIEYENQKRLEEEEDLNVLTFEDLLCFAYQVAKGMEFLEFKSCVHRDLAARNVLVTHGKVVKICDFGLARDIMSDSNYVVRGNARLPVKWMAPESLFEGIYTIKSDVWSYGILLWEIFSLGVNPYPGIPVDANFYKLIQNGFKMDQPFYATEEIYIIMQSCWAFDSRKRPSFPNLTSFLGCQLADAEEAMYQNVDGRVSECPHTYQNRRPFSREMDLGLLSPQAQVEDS
The experiment in a line: Inhibition of FLT-3, radiometric filter-binding assay. As to conditions: 90 μM ATP, 0.5 mg/mL pE4Y, room temperature. Format: biochemical. The essentials:
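Radiometric filter-binding assay of FLT-3 (3 nM in Solution 2; final conc not stated) phosphorylating poly(Glu,Tyr) 4:1 (0.5 mg/mL) with 90 μM ATP plus [γ-33P]ATP, in HEPES pH 7.5, MgCl2, NaCl, DTT, BSA, 2.5% DMSO. 12-point titration, typically 0.01–5 μM, 20 min at room temperature; TCA-stopped, filtered, scintillation-counted; IC50 or Ki fitted.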

Chain of c-Met (P08581 25-1390): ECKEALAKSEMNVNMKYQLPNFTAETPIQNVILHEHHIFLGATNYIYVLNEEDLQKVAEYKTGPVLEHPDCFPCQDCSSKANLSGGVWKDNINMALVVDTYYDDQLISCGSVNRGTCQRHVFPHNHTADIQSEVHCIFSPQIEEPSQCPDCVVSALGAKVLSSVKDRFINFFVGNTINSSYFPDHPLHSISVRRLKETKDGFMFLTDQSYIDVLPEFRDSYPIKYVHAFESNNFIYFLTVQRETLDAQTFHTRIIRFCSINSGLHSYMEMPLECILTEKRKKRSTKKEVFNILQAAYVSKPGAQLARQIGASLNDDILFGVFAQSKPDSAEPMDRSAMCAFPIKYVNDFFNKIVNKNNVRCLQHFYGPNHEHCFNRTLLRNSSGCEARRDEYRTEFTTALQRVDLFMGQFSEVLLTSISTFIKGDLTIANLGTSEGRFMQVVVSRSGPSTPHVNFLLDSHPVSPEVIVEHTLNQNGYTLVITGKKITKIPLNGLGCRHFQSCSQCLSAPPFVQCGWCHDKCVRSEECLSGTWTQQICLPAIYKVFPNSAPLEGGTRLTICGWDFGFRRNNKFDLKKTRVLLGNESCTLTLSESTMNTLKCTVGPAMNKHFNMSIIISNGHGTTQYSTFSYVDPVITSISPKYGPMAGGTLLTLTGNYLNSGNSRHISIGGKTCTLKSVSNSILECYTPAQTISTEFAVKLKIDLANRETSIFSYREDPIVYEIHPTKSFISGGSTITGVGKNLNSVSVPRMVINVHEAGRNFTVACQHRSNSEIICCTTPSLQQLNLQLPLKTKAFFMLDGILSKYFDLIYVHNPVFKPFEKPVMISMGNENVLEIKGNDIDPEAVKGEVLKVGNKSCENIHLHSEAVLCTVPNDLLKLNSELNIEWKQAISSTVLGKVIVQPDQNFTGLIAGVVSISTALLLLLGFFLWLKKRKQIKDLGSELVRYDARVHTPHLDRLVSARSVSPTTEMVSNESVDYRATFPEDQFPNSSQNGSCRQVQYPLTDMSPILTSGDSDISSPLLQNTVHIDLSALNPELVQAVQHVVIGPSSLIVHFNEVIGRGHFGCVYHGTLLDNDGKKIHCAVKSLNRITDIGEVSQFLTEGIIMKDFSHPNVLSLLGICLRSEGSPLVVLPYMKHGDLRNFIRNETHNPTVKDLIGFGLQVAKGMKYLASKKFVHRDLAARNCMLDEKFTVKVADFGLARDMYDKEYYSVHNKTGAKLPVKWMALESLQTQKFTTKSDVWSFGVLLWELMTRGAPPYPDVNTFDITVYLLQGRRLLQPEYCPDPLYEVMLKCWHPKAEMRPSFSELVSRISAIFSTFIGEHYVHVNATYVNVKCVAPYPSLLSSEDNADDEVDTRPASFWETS

In the case of `Nc1cccc(-c2cnc3[nH]cc(-c4oncc4-c4cccc(F)c4F)c3c2)c1` [Compound 86, 3-{3-[4-(2,3-Difluoro-phenyl)-isoxazol-5-yl]-1H-pyrrolo [2,3-b]pyridin-5-yl}-phenylamine], the negative logarithm of the Ki (pKi) in assay [1] and in assay [2] was over 6.70 throughout.

As to `Oc1cnc2[nH]cc(-c3oncc3-c3cccc(Cl)c3Cl)c2c1` [Compound 48, 3-[4-(2,3-Dichloro-phenyl)-isoxazol-5-yl]-1H-pyrrolo[2,3-b]pyridin-5-ol], the pKi in assay [1] is over 6.70; in assay [2], 6.00 to 6.70.

Regarding `CN1CCN(c2ccc(-c3cnc4[nH]cc(-c5oncc5-c5cccc(F)c5F)c4c3)cn2)CC1` [Compound 71, 3-[4-(2,3-Difluoro-phenyl)-isoxazol-5-yl]-5-[6-(4-methyl-piperazin-1-yl)-pyridin-3-yl]-1H-pyrrolo[2,3-b]pyridine], the pKi in assay [1] and in assay [2] was over 6.70 throughout.

`CN(C)C(=O)c1ccc(-c2cnc3[nH]cc(-c4oncc4-c4cccc(F)c4F)c3c2)nc1` [Compound 79, 6-{3-[4-(2,3-Difluoro-phenyl)-isoxazol-5-yl]-1H-pyrrolo [2,3-b]pyridin-5-yl}-N,N-dimethyl-nicotinamide]: the negative logarithm of the Ki (pKi) in assay [1] and in assay [2] was over 6.70 in each case.

On to `COc1cnc2[nH]cc(-c3oncc3-c3cccc(Cl)c3Cl)c2c1` [Compound 49, 3-[4-(2,3-Dichloro-phenyl)-isoxazol-5-yl]-5-methoxy-1H-pyrrolo[2,3-b]pyridine], for which the negative logarithm of the Ki (pKi) was over 6.70 in assay [1] and 6.00 to 6.70 in assay [2].

Turning to `Fc1cccc(-c2cnoc2-c2c[nH]c3ncc(/C=C/n4cncn4)cc23)c1F` [Compound 133, 3-[4-(2,3-Difluoro-phenyl)-isoxazol-5-yl]-5-(2-[1,2,4]triazol-1-yl-vinyl)-1H-pyrrolo[2,3-b]pyridine], the negative-log Ki (pKi) in assay [1] and in assay [2] was over 6.70 each time.

Regarding `Nc1ccc(-c2cnc3[nH]cc(-c4oncc4-c4cccc(F)c4F)c3c2)cc1` [Compound 90, 4-{3-[4-(2,3-Difluoro-phenyl)-isoxazol-5-yl]-1H-pyrrolo [2,3-b]pyridin-5-yl}-phenylamine], the pKi in assay [1] and in assay [2] was over 6.70 throughout.

With `Clc1cccc(-c2cnoc2-c2c[nH]c3ncc(-c4cccnc4)cc23)c1Cl` [Compound 99, 3-[4-(2,3-Dichloro-phenyl)-isoxazol-5-yl]-5-pyridin-3-yl-1H-pyrrolo[2,3-b]pyridine], the negative-log Ki (pKi) in assay [1] and in assay [2] was over 6.70 in each case.

As for `C=Cc1cnc2[nH]cc(-c3oncc3-c3cccc(F)c3F)c2c1` [Compound 66, 3-[4-(2,3-Difluoro-phenyl)-isoxazol-5-yl]-5-vinyl-1H-pyrrolo[2,3-b]pyridine], the figures for the negative-log Ki (pKi) in assay [1] and in assay [2] were over 6.70 and 6.00 to 6.70, respectively.

With `Nc1[nH]c2ncccc2c1-c1oncc1-c1cccc(F)c1F` [Compound 152], the pKi in assay [1] and in assay [2] was 4.90 to 6.00 in each case.

With `Fc1cccc(-c2cnoc2-c2c[nH]c3ncc(C4=CCC(NCc5ccccc5)CC4)cc23)c1F` (stereo not drawn) [Compound 136, Benzyl-(4-{3-[4-(2,3-difluoro-phenyl)-isoxazol-5-yl]-1H-pyrrolo[2,3-b]pyridin-5-yl}-cyclohex-3-enyl)-amine], the pKi is over 6.70 in assay [1] and 6.00 to 6.70 in assay [2].

Take `CN1CCN(c2ccc(-c3cnc4[nH]cc(-c5nncn5-c5cccc(F)c5F)c4c3)cc2)CC1` [Compound 110, 3-[4-(2,3-Difluoro-phenyl)-4H-[1,2,4]triazol-3-yl]-5-[4-(4-methyl-piperazin-1-yl)-phenyl]-1H-pyrrolo[2,3-b]pyridine]: the negative logarithm of the Ki (pKi) is over 6.70 in assay [1] and 6.00 to 6.70 in assay [2].

On to `COC(=O)c1cnc2[nH]cc(-c3oncc3-c3cccc(F)c3F)c2c1` [Compound 105, 3-[4-(2,3-Difluoro-phenyl)-isoxazol-5-yl]-1H-pyrrolo[2,3-b]pyridine-5-carboxylic acid methyl ester], for which the pKi in assay [1] and in assay [2] was over 6.70 in each case.

`Fc1cccc(-n2cnnc2-c2c[nH]c3ncc(-c4ccc(N5CCCC5)nc4)cc23)c1F` [Compound 118, 3-[4-(2,3-Difluoro-phenyl)-4H-[1,2,4]triazol-3-yl]-5-(6-pyrrolidin-1-yl-pyridin-3-yl)-1H-pyrrolo[2,3-b]pyridine]: the values for the pKi in assay [1] and in assay [2] were over 6.70 and 6.00 to 6.70, respectively.

`CN(C)CC#Cc1cnc2[nH]cc(-c3oncc3-c3cccc(F)c3F)c2c1` [Compound 53, (3-{3-[4-(2,3-Difluoro-phenyl)-isoxazol-5-yl]-1H-pyrrolo[2,3-b]pyridin-5-yl}-prop-2-ynyl)-dimethyl-amine]: the figures for the pKi in assay [1] and in assay [2] were over 6.70 and 6.00 to 6.70, respectively.

`CN(C)c1ccc(-c2cnc3[nH]cc(-c4nncn4-c4cccc(F)c4F)c3c2)cc1` [Compound 106, (4-{3-[4-(2,3-Difluoro-phenyl)-4H-[1,2,4]triazol-3-yl]-1H-pyrrolo[2,3-b]pyridin-5-yl}-phenyl)-dimethyl-amine]: the negative-log Ki (pKi) in assay [1] was over 6.70; in assay [2], 6.00 to 6.70.

On to `N#CCC(=O)N1CCC(c2cnc3[nH]cc(-c4oncc4-c4cccc(F)c4F)c3c2)CC1` [Compound 64, 3-(4-{3-[4-(2,3-Difluoro-phenyl)-isoxazol-5-yl]-1H-pyrrolo[2,3-b]pyridin-5-yl}-piperidin-1-yl)-3-oxo-propionitrile], for which the figures for the pKi in assay [1] and in assay [2] were over 6.70 and 6.00 to 6.70, respectively.

`Nc1ccnc(-c2cnc3[nH]cc(-c4oncc4-c4cccc(F)c4F)c3c2)c1` [Compound 83, 2-{3-[4-(2,3-Difluoro-phenyl)-isoxazol-5-yl]-1H-pyrrolo [2,3-b]pyridin-5-yl}-pyridin-4-ylamine]: the negative-log Ki (pKi) in assay [1] was over 6.70; in assay [2] it was 4.90 to 6.00.

Take `CN1CCN(C(=O)[C@H]2C[C@H]2c2cnc3[nH]cc(-c4oncc4-c4cccc(F)c4F)c3c2)CC1` (relative stereo) [Compound 143, cis-(2-{3-[4-(2,3-Difluoro-phenyl)-isoxazol-5-yl]-1H-pyrrolo[2,3-b]pyridin-5-yl}-cyclopropyl)-(4-methyl-piperazin-1-yl)-methanone]: the pKi in assay [1] is 6.00 to 6.70 and 4.90 to 6.00; in assay [2], 6.00 to 6.70.

On to `CN1CCN(c2ccc(-c3cnc4[nH]cc(-c5oncc5-c5cccc(F)c5F)c4c3)cc2)CC1` [Compound 70, 3-[4-(2,3-Difluoro-phenyl)-isoxazol-5-yl]-5-[4-(4-methyl-piperazin-1-yl)-phenyl]-1H-pyrrolo[2,3-b]pyridine methanesulfonate], for which the negative-log Ki (pKi) in assay [1] and in assay [2] was over 6.70 throughout.

Take `CN(C)c1ccnc2[nH]cc(-c3oncc3-c3cccc(F)c3F)c12` [Compound 56, {3-[4-(2,3-Difluoro-phenyl)-isoxazol-5-yl]-1H-pyrrolo[2,3-b]pyridin-4-yl}-dimethyl-amine]: the negative-log Ki (pKi) in assay [1] and in assay [2] was 4.90 to 6.00 each time.

In the case of `CN(C)C1CC=C(c2cnc3[nH]cc(-c4oncc4-c4cccc(F)c4F)c3c2)CC1` (stereo not drawn) [Compound 138, (4-{3-[4-(2,3-Difluoro-phenyl)-isoxazol-5-yl]-1H-pyrrolo[2,3-b]pyridin-5-yl}-cyclohex-3-enyl)-dimethyl-amine], the negative-log Ki (pKi) in assay [1] and in assay [2] was over 6.70 throughout.

As for `CS(=O)(=O)NC1CC=C(c2cnc3[nH]cc(-c4oncc4-c4cccc(F)c4F)c3c2)CC1` (stereo not drawn) [Compound 140, N-(4-{3-[4-(2,3-Difluoro-phenyl)-isoxazol-5-yl]-1H-pyrrolo[2,3-b]pyridin-5-yl}-cyclohex-3-enyl)-methanesulfonamide], the pKi in assay [1] and in assay [2] was over 6.70 each time.

For the compound `CN(C)Cc1ccnc(-c2cnc3[nH]cc(-c4oncc4-c4cccc(F)c4F)c3c2)c1` [Compound 82, (2-{3-[4-(2,3-Difluoro-phenyl)-isoxazol-5-yl]-1H-pyrrolo[2,3-b]pyridin-5-yl}-pyridin-4-ylmethyl)-dimethyl-amine], the pKi in assay [1] and in assay [2] was over 6.70 throughout.
